Experimental data: patent US7465471B2, “Palatability of aquaculture feed” (Novus International, Inc., priority 2003, dated 2008)
Counter-ions that a name gives are not always drawn. Like-named read-outs stand apart in the source and are kept apart here.

How the values were obtained:
mold = assay: Mold growth in starter mash by CO2 formation in headspace (Examples 7, 8); conditions: basal diet 85.2% dry matter; 2.0, 1.5 and 1.0 lb/ton; FIG. 12
Description: Fungal growth in basal starter mash was studied in compositions supplemented with DLM or Alimet® as the methionine source. Total microbial growth was monitored by measuring carbon dioxide (CO2) formation in sealed vessels at 28° C. over time.
The technique of using a closed system and measuring CO2 formation has been verified as an approximation of the conditions found in grain storage bins. See, e.g., Muir et al., Trans. ASAE, 28(5) 1673-1675 (1985), the contents of which are hereby incorporated by reference in their entirety.
A mash starter mash feed (formulation shown in Table 9, below) was subdivided into three groups: basal (control), 0.2% DLM, or 0.2% Alimet®. The feed studied had no commercial mold inhibitors added, and is representative of a typical broiler feed.
Initial moisture of the feed was 10.8%. After the addition of Alimet® or DLM, the moisture of the samples was adjusted by the addition of 2%, 4%, or 6% sterile distilled water to promote mold growth, achieving three moisture groups: […].
For each study, four replicate samples of each moisture group were mixed, and 600 g of the mixture was placed into 1 L containers, sealed, and placed at 28° C. in a temperature-controlled room. Draeger Detector tubes (CO2-measuring, obtained from Fisher Scientific) were used to measure the developed CO2 at different days following vessel sealing (two measurements were made per week). Draeger Short-Term Detector Tubes are glass tubes filled with inert carrier and an indicating reagent. The reagent produces a colorimetric indication in the presence of a particular gas (CO2). The concentration of gas is read directly from the discoloration on the tube's printed scale.
The specific mold species present were not identified. Statistical analysis was accomplished by using Duncan's multiple range test (SAS). Different letters on individual time points in FIGS. 9-11 indicate statistical differences of P<0.05.
The experiment described above in Example 7 was repeated with blends of 2.0 lb/ton, 1.5 lb/ton, 1.0 lb/ton or 0.5 lb/ton of 65% propionic acid and either […]. The blends were prepared according to the matrix outlined in Table 8, below. The 65% propionic acid was buffered with ammonium hydroxide to a pH of 5.5.

Salmonella = conditions: for Average cfu/g / Average log / Average Δ log: protocol of Example 9; for Average Δ log: versus control; for Δ log: Table 11, 90 min 37 C
Description: Tests were carried out using 1 g feed (crumble ground) with 6% meat and bone meal (“MBM”). […] The acid solutions were added to the feed as indicated below; water (1 mL) and 150 mM HCl (1.8 mL) was added to bring the pH to 4.0. Naldixic Acid resistant Salmonella (provided by Dr. Stan Bailey, USDA/ARS, Athens, Ga.) (initial colony count=40,000 cfu/g) was added, and the feed solutions were incubated at 37 C for 90 min. Each sample was diluted with 6 mL H2O, plated, and counted the following day.

S. enteritidis = S. enteritidis colony counts in broth (Examples 1-3, 17); conditions: pH 4.5; for log cfu/mL: Table 24, blends total 5 g/L, control […]; for log cfu/mL (S. enteritidis colony counts in broth): total 5 g/L, protocol of Example 1; for inhibitory effect on S. enteritidis: 5 g/l, Example 17
E. coli (ATCC 25922) = assay: E. coli populations in trypticase soy broth with acid:Alimet blends (Example 4); type: cell-based; conditions: Table 7, total 6 g/L, initial 4.97 log cfu/mL
Description: Blends of organic acid:Alimet® of 2:1 and 5:1 were studied, at a total concentration (organic acid+Alimet®) of 6 g/L.
The pH of the solutions were originally adjusted to pH 5 by addition of HCl and/or NaOH as needed. Activated E. coli culture solutions were transferred to fresh soy broth twice at 24-hour intervals prior to before addition of the organic acid:Alimet® blend. E. coli culture solutions were centrifuged; pellet produced was re-suspended with Butterfield buffer, and the resulting solutions were diluted to approximately 10^7 CFU E. coil/mL.
Bottles were inoculated with 100 μL of prepared bacterial suspension and an organic acid:Alimet® blend. Samples were taken after five and 24 hours of incubation, serially diluted and spread-plated on trypticase soy agar, and incubated at 35° C. for 24 hours.

[1] = test system: Common carp, Cyprinus carpio L.; assay: Feeding preference of common carp, number of bites (Example 25); type: in vivo; conditions: for Bites/10 minutes: test diet vs control diet in same tank
Description: Common carp, Cyprinus carpio L. from a commercial fish farm were acquired and sorted to common body weight and length, about 20 g and 8-11 cm, respectively. […] Diets were mixed with adequate water to create a stable feed ball. […] Twenty tanks (45 cm×40 cm×45 cm) were dedicated the feeding behavior assessment. Two fish were housed in each tank with two feeding bars per tank. […] The water in each tank was aerated 24 h a day and the fish were fed the control diet under the above conditions for one week prior to the study. To evaluate preference, the control and test diets were each placed on one of the two bars in each tank.

E. coli = E. coli colony counts over time in soy broth at pH 4 or 7.3 (Example 5); type: cell-based; conditions: FIG. 5
Description: The cultures were incubated, and colony counts performed at increasing times.

[2] = Table 26, acid or formaldehyde plus Alimet
[3] = Table 34, formulations of Table 33 (g/kg)
[4] = Table 37, formulations of Table 36 (g/kg)
[5] = Table 38, formulations of Table 36 (g/kg)

CCC(=O)O [65% propionic acid, propionic acid]
delay of the onset of mold growth (mold): about 11 days

CCCC(=O)O [Blend A16]
log cfu/g (Salmonella; Table 13, blends without Alimet, control 4.7): 2.7 log cfu/g | Δ log reduction (Salmonella; Table 13, blends without Alimet, vs control): 2.0

O=CO [Blend A81]
log cfu/mL (S. enteritidis): 3.93 log cfu/mL

CCCC(=O)O [Blend A87]
log cfu/mL (S. enteritidis): 4.44 log cfu/mL

O=C(O)CC(O)(CC(=O)O)C(=O)O [Blend A93]
log cfu/mL (S. enteritidis): 4.74 log cfu/mL

O=C(O)/C=C/C(=O)O [Blend A99]
log cfu/mL (S. enteritidis colony counts in broth) (S. enteritidis; Table 25, acid plus Alimet): 4.68 log cfu/mL

CC(O)C(=O)O (stereo not shown) [Blend A105]
log cfu/mL (S. enteritidis colony counts in broth) (S. enteritidis; Table 25, acid plus Alimet): 4.44 log cfu/mL

O=C(O)CC(O)C(=O)O (stereo not shown) [Blend A111]
log cfu/mL (S. enteritidis colony counts in broth) (S. enteritidis; Table 25, acid plus Alimet): 5.01 log cfu/mL

CCC(=O)O [Blend A117]
log cfu/mL (S. enteritidis colony counts in broth) (S. enteritidis; [2]): 4.34 log cfu/mL

O=P(O)(O)O [Blend A123]
log cfu/mL (S. enteritidis colony counts in broth) (S. enteritidis; [2]): 4.68 log cfu/mL

C=O [Blend A129]
log cfu/mL (S. enteritidis colony counts in broth) (S. enteritidis; [2]): −0.30 log cfu/mL

CCCC(=O)O [Blend A147]
Trial 1 cfu/g (Salmonella; Table 34): 22,200 cfu/g | Trial 2 cfu/g (Salmonella; Table 34): 15,400 cfu/g | Average cfu/g (Salmonella; [3]): 18,800 cfu/g | Average log (Salmonella; [3]): 4.3 | Average Δ log (Salmonella; Table 34): 0.4

CCCC(=O)O [Blend A177]
Trial 1 cfu/g (Salmonella; Table 37): 5,400 cfu/g | Trial 2 cfu/g (Salmonella; Table 37): 7,000 cfu/g | Trial 3 cfu/g (Salmonella; Table 37): 6,600 cfu/g | Average cfu/g (Salmonella; [4]): 6,333 cfu/g | Average log (Salmonella; [4]): 3.8 | Average Δ log (Salmonella; Table 37): 0.5

CCC(=O)O [Blend A204]
Trial 1 cfu/g (Salmonella; Table 38): 5,400 cfu/g | Trial 2 cfu/g (Salmonella; Table 38): 1,600 cfu/g | Average cfu/g (Salmonella; [5]): 3,500 cfu/g | Average log (Salmonella; [5]): 3.5 | Average Δ log (Salmonella; Table 38): 0.6

CSCCC(O)C(=O)O (stereo not shown) [Blend A207]
Trial 1 cfu/g (Salmonella; Table 38): 0 cfu/g | Trial 2 cfu/g (Salmonella; Table 38): 0 cfu/g | Trial 3 cfu/g (Salmonella; Table 38): 0 cfu/g | Trial 4 cfu/g (Salmonella; Table 38, Trial 4): 0 cfu/g | Average cfu/g (Salmonella; [5]): 0 cfu/g | Average Δ log (Salmonella; Table 38): 4.2

Cl [HCl, hydrochloric acid]
log cfu/mL t = 4 h (E. coli (ATCC 25922)): 7.85 log cfu/mL | log cfu/mL t = 24 h (E. coli (ATCC 25922)): 8.34 log cfu/mL

CSCCC(O)C(=O)O (stereo not shown) [MHA, methionine hydroxy analog]
Bites/10 minutes ([1]; MHA 0.077 % Inclusion): 74.39 ± 14.14 Bites/10 minutes | Bites/10 minutes ([1]; MHA 0.154 % Inclusion): 67.73 ± 23.18 Bites/10 minutes | Bites/10 minutes ([1]; MHA 0.308 % Inclusion): 63.52 ± 20.23 Bites/10 minutes | number of bites vs control diet ([1]; common carp, 10 minutes, 0.07-0.28% Alimet or 0.077-0.308% MHA in diet): significantly higher

O=P(O)(O)O [Phosphoric, phosphoric acid]
inhibitory effect on S. enteritidis (S. enteritidis): do not show a significant inhibitory effect

CCCC(=O)O [butyric, butyric acid]
Δ log (Salmonella; 10 g/L, vs control): 0.7 | Δ log (Salmonella; 30 g/L, vs control): 4.0 | Δ log (Salmonella; 50 g/L, vs control): 4.0

O=C(O)/C=C/C(=O)O [fumaric, fumaric acid]
inhibitory effect on S. enteritidis (S. enteritidis): do not show a significant inhibitory effect

CC(O)C(=O)O (stereo not shown) [lactic, lactic acid]
decrease of colony counts of E. coli vs hydrochloric acid (E. coli): better than hydrochloric acid | inhibitory effect on S. enteritidis (S. enteritidis): do not show a significant inhibitory effect

O=C(O)CC(O)C(=O)O (stereo not shown) [malic, malic acid]
inhibitory effect on S. enteritidis (S. enteritidis): do not show a significant inhibitory effect

CCC(=O)O [propionic, propionic acid]
inhibitory effect on S. enteritidis (S. enteritidis): do not show a significant inhibitory effect
